From US20080261977A1, “Pyrimidine Derivatives as Cannabinoid Receptor Modulators” (priority 2004, published 2008)
Counter-ions that a name gives are not always drawn. Like-named read-outs stand apart in the source and are kept apart here.

Biological target: T1, human cannabinoid CB2 receptor (Homo sapiens, UniProt P34972)
T1 construct: expressed in transfected cells; host or cells: Saccharomyces cerevisiae strain MMY23 (cassette integrated at the ura3 locus; chimeric Gpa1/Gαi3)
Test: Cannabinoid CB2 receptor agonist activity, yeast (Saccharomyces cerevisiae) cells expressing the receptor, FDGlu fluorescence
Assay type: cell-based
Settings: for Emax: read-out: efficacy (Emax relative to HU210) at the cloned human cannabinoid CB2 receptor
Experimental: The cannabinoid CB2 receptor agonist activity of the compounds of formula (I) was determined in accordance with the following experimental method.
Yeast (Saccharomyces cerevisiae) cells expressing the human cannabinoid CB2 receptor were generated by integration of an expression cassette into the ura3 chromosomal locus of yeast strain MMY23. This cassette consisted of DNA sequence encoding the human CB2 receptor flanked by the yeast GPD promoter to the 5′ end of CB2 and a yeast transcriptional terminator sequence to the 3′ end of CB2. MMY23 expresses a yeast/mammalian chimeric G-protein alpha subunit in which the C-terminal 5 amino acids of Gpa1 are replaced with the C-terminal 5 amino acids of human Gαi3 (as described in Brown et al. (2000), Yeast 16:11-22). Cells were grown at 30° C. in liquid Synthetic Complete (SC) yeast media (Guthrie and Fink (1991), Methods in Enzymology, Vol. 194) lacking uracil, tryptophan, adenine and leucine to late logarithmic phase (approximately 6 OD600/ml).
Agonists were prepared as 10 mM stocks in DMSO. EC50 values (the concentration required to produce 50% maximal response) were estimated using dilutions of between 3- and 5-fold (BiomekFX, Beckman) into DMSO. Agonist solutions in DMSO (1% final assay volume) were transferred into black, clear bottom, microtitre plates from NUNC (96- or 384-well). Cells were suspended at a density of 0.2 OD600/ml in SC media lacking histidine, uracil, tryptophan, adenine and leucine and supplemented with 10 mM 3-aminotriazole, 0.1M sodium phosphate pH 7.0, and […] fluorescein di-β-D-glucopyranoside (FDGlu). This mixture (50 ul per well for 384-well plates, 200 ul per well for 96-well plates) was added to agonist in the assay plates (Multidrop 384, Labsystems). After incubation at 30° C. for 24 hours, fluorescence resulting from degradation of FDGlu to fluorescein due to exoglucanase, an endogenous yeast enzyme produced during agonist-stimulated cell growth, was determined using a Spectrofluor microtitre plate reader (Tecan; excitation wavelength: 485 nm; emission wavelength: 535 nm). Fluorescence was plotted against compound concentration and iteratively curve fitted using a four parameter fit to generate a concentration effect value. Efficacy (Emax) was calculated from the equation
Emax=Max[compound X]−Min[compound X]/Max[HU210]−Min[HU210]×100%
where Max[compound X] and Min[compound X] are the fitted maximum and minimum respectively from the concentration effect curve for compound X, and Max[HU210] and Min[HU210] are the fitted maximum and minimum respectively from the concentration effect curve for (6aR,10aR)-3-1,1′-Dimethylheptyl)-6a,7,10,10a-tetrahydro-1-hydroxy-6,6-dimethyl-6H-dibenzo[b,d]pyran-9-methanol (HU210; available from Tocris). Equieffective molar ratio (EMR) values were calculated from the equation
Where EC50[compound X] is the EC50 of compound X and EC50[HU210] is the EC50 of HU210.

[1] = yeast agonist assay, read-out: EC50 at the cloned human cannabinoid CB2 receptor

T1 sequence (P34972 whole entry): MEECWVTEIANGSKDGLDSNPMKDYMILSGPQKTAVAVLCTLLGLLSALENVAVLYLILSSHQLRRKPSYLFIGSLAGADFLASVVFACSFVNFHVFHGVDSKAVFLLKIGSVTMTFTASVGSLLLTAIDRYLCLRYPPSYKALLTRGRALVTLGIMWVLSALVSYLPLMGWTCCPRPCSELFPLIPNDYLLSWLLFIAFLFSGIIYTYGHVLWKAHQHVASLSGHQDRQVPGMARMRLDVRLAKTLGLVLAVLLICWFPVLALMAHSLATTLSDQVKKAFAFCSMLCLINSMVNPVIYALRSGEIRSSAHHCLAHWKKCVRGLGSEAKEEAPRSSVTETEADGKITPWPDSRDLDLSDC

EC50 [1]	Emax (yeast agonist assay)	SMILES	EC50	Emax
< 0.3 µM	> 50%	FC(F)(F)c1nc(Nc2cccc(Cl)c2)ncc1CNCC1CCC1 [Example 18, (3-Chlorophenyl)-{5-[(cyclobutylmethylamino)-methyl]-4-trifluoromethyl-pyrimidin-2-yl}-amine,formate]		
< 0.3 µM	> 50%	CCCNCc1cnc(Nc2cccc(Cl)c2)nc1C(F)(F)F [Example 19, (3-Chlorophenyl)-(5-propylaminomethyl-4-trifluoromethyl-pyrimidin-2-yl)-amine,formate]		
		CC(C)(C)CNCc1cnc(Nc2cccc(Cl)c2)nc1C(F)(F)F [Example 20, (3-Chlorophenyl)-{5-[(2,2-dimethylpropylamino)-methyl]-4-trifluoromethyl-pyrimidin-2-yl}-amine]	< 0.3 µM	> 50%
		FC(F)(F)c1nc(Nc2cccc(Cl)c2)ncc1CNC1CCC1 [Example 21, (3-Chlorophenyl)-(5-cyclobutylaminomethyl-4-trifluoromethyl-pyrimidin-2-yl)-amine]	< 0.3 µM	> 50%
< 0.3 µM	> 50%	CCCCNCc1cnc(Nc2cccc(Cl)c2)nc1C(F)(F)F [Example 22, (3-Chlorophenyl)-(5-butylaminomethyl-4-trifluoromethyl-pyrimidin-2-yl)-amine,formate]		
< 0.3 µM	> 50%	FC(F)(F)c1nc(Nc2cccc(Cl)c2)ncc1CNC1CC1 [Example 23, (3-Chlorophenyl)-(5-cyclopropylaminomethyl-4-trifluoromethyl-pyrimidin-2-yl)-amine,formate]		
< 0.3 µM	> 50%	CC(C)CCNCc1cnc(Nc2cccc(Cl)c2)nc1C(F)(F)F [Example 24, (3-Chlorophenyl)-{5-[(3-methylbutylamino)-methyl]-4-trifluoromethyl-pyrimidin-2-yl}-amine,formate]		
< 0.3 µM	> 50%	FC(F)(F)c1nc(Nc2cccc(Cl)c2)ncc1CNCC1CC1 [Example 25, (3-Chlorophenyl)-{5-[(cyclopropylmethylamino)-methyl]-4-trifluoromethyl-pyrimidin-2-yl}-amine,formate]		
		CC(C)CNCc1cnc(Nc2ccc(Cl)cc2Cl)nc1C(F)(F)F [Example 27, (2,4-Dichlorophenyl)-{5-[(isobutylamino)-methyl]-4-trifluoromethyl-pyrimidin-2yl}-amine]	< 0.3 µM	> 50%
		FC(F)(F)c1nc(Nc2ccc(Cl)cc2Cl)ncc1CNCC1CC1 [Example 28, (2,4-Dichlorophenyl)-{5-[(cyclopropylmethylamino)-methyl]-4-trifluoromethyl-pyrimidin-2-yl}-amine]	< 0.3 µM	> 50%
< 0.3 µM	> 50%	FC(F)(F)c1nc(Nc2ccc(Cl)cc2Cl)ncc1CNCC1CCC1 [Example 29, (2,4-Dichlorophenyl)-{5-[(cyclobutylmethylamino)-methyl]-4-trifluoromethyl-pyrimidin-2-yl}-amine,formate]		
		FC(F)(F)c1nc(Nc2ccc(Cl)cc2Cl)ncc1CNC1CC1 [Example 30, (2,4-Dichlorophenyl)-(5-cyclopropylaminomethyl-4-trifluoromethyl-pyrimidin-2-yl)-amine]	< 0.3 µM	> 50%
< 0.3 µM	> 50%	FC(F)(F)c1nc(Nc2cccc(Cl)c2)ncc1CNCc1cccnc1 [Example 31, (3-Chlorophenyl)-(5-{[(pyridin-3-ylmethyl)-amino]-methyl}-4-trifluoromethyl-pyrimidin-2-yl}-amine,formate]		
		CC(C)(C)CNCc1cnc(Nc2ccc(Cl)cc2Cl)nc1C(F)(F)F [Example 32, (2,4-Dichlorophenyl)-{5-[(2,2-dimethylpropylamino)-methyl]-4-trifluoromethyl-pyrimidin-2-yl}-amine]	< 0.3 µM	> 50%
< 0.3 µM	> 50%	COCCNCc1cnc(Nc2ccc(Cl)cc2Cl)nc1C(F)(F)F [Example 33, (2,4-Dichlorophenyl)-{5-[(2-methoxy-ethylamino)-methyl]-4-trifluoromethyl-pyrimidin-2-yl}-amine]		
		FC(F)(F)c1nc(Nc2cccc(Cl)c2)ncc1CNC1CCCC1 [Example 34]	< 0.3 µM	> 50%
		FC(F)(F)c1nc(Nc2ccc(Cl)cc2Cl)ncc1CN1CCOCC1 [Example 35, (2,4-Dichlorophenyl)-(5-morpholin-4-ylmethyl-4-trifluoromethyl-pyrimidin-2-yl)-amine]	< 0.3 µM	> 50%
< 0.3 µM	> 50%	CC(C)CNCc1cnc(Nc2cccc(F)c2)nc1C(F)(F)F [Example 36, (3-Fluorophenyl)-{5-[(isobutylamino)-methyl]-4-trifluoromethyl-pyrimidin-2yl}-amine, formate]		
< 0.3 µM	> 50%	Fc1cccc(Nc2ncc(CNCC3CCC3)c(C(F)(F)F)n2)c1 [Example 37, (3-Fluorophenyl)-{5-[(cyclobutylmethylamino)-methyl]-4-trifluoromethyl-pyrimidin-2-yl}-amine,formate]		
< 0.3 µM	> 50%	Fc1cccc(Nc2ncc(CNC3CC3)c(C(F)(F)F)n2)c1 [Example 38, (3-Fluorophenyl)-(5-cyclopropylaminomethyl-4-trifluoromethyl-pyrimidin-2-yl)-amine]		
		FC(F)(F)c1nc(Nc2cccc(Cl)c2)ncc1CNC1CCCCC1 [Example 43, (3-Chlorophenyl)-(5-cyclohexylaminomethyl-4-trifluoromethyl-pyrimidin-2-yl)-amine]	0.3 to 1 µM	> 50%

SMILES	EC50 [1]	Emax (yeast agonist assay)	EC50	Emax
O=S1(=O)CCC(NCc2cnc(Nc3cccc(Cl)c3)nc2C(F)(F)F)CC1 [Example 26, (3-Chlorophenyl)-{5-[(1,1-dioxo-hexahydro-1l^6-thiopyran-4-ylamino)-methyl]-4-trifluoromethyl-pyrimidin-2-yl}-amine, formate]	< 0.3 µM			> 50%
FC(F)(F)c1nc(Nc2cccc(Cl)c2)ncc1CN1CCCCC1 [Example 39, (3-Chlorophenyl)-(5-piperidin-1-ylmethyl-4-trifluoromethyl-pyrimidin-2-yl)-amine,formate]	0.3 to 1 µM			> 50%
FC(F)(F)c1nc(Nc2cccc(Cl)c2)ncc1CN1CCCC1 [Example 40, (3-Chlorophenyl)-(5-pyrrolidin-1-ylmethyl-4-trifluoromethyl-pyrimidin-2-yl)-amine, formate]	0.3 to 1 µM			> 50%
Fc1ccc(CNCc2cnc(Nc3cccc(Cl)c3)nc2C(F)(F)F)cc1 [Example 41, (3-Chlorophenyl)-{5-[(4-fluorobenzylamino)-methyl]-4-trifluoromethyl-pyrimidin-2-yl)-amine,formate]	0.3 to 1 µM			> 50%
CN(Cc1cnc(Nc2cccc(Cl)c2)nc1C(F)(F)F)CC1CCOCC1 [Example 42, (3-Chlorophenyl)-(5-{[methyl-(tetrahydro-pyran-4-ylmethyl)-amino]-methyl}-4-trifluoromethyl-pyrimidin-2-yl)-amine]	0.3 to 1 µM			> 50%
CN(C)Cc1cnc(Nc2cccc(Cl)c2)nc1C(F)(F)F [Example 44, (3-Chlorophenyl)-(5-dimethylaminomethyl-4-trifluoromethyl-pyrimidin-2-yl)-amine, formate]	0.3 to 1 µM			> 50%
FC(F)(F)c1nc(Nc2cccc(Cl)c2)ncc1CNCCc1ccccc1 [Example 45, (3-Chlorophenyl)-[5-(phenethylamino-methyl)-4-trifluoromethyl-pyrimidin-2-yl]-amine, formate]	0.3 to 1 µM			> 50%
FC(F)(F)c1nc(Nc2cccc(Cl)c2)ncc1CNCCCc1ccccc1 [Example 46, (3-Chlorophenyl)-[5-(phenpropylamino-methyl)-4-trifluoromethyl-pyrimidin-2-yl]-amine, formate]	0.3 to 1 µM			> 50%
CCCCN(C)Cc1cnc(Nc2cccc(Cl)c2)nc1C(F)(F)F [Example 47, {5-[(Butyl-methyl-amino)-methyl]-4-trifluoromethyl-pyrimidin-2-yl}-(3-chlorophenyl)-amine]	0.3 to 1 µM			> 50%
